Laboratory results taken from patent publication US9012640B2, “Cabergoline derivatives” (MAP Pharmaceuticals, Inc., priority 2012, dated 2015).
Read-outs that look alike come from different tables or passages of the source.

Experiments:
[1] = molecular target: T1, Recombinant human serotonin receptor 5-HT2B (Homo sapiens, UniProt P41595); assay: Aequorin assay, receptor agonist/antagonist activity, CHO-K1 cells; assay type: cell-based
T1 construct: expressed in transfected cells; host or cells: CHO-K1 (coexpressing mitochondrial apoaequorin)
Procedure: (§1) Compound 1 was synthesized as described above and assayed for receptor activity against a panel of dopaminergic and serotoninergic receptors. Recombinant human serotonin receptors 5-HT2A, and 5-HT2B were expressed in CHO-K1 cells and activity (receptor agonist/antagonist activity) was assayed using an Aequorin assay (coexpression of mitochondrial apoaequorin). Compound 1 was used at a concentration of 0.010 nM to 20,000 nM for agonist activity and 0.005 nM to 10,000 nM for antagonist activity.

[2] = molecular target: T2, Recombinant human serotonin receptor 5-HT2A (Homo sapiens, UniProt P28223); assay: as above; assay type: cell-based
T2 construct: expressed in transfected cells; host or cells: CHO-K1 (coexpressing mitochondrial apoaequorin)
Procedure: as §1

[3] = molecular target: T3, Recombinant human dopaminergic receptor D4 (Homo sapiens, UniProt P21917); assay: GTPγS functional assay; assay type: biochemical
T3 sequence (P21917 1-419): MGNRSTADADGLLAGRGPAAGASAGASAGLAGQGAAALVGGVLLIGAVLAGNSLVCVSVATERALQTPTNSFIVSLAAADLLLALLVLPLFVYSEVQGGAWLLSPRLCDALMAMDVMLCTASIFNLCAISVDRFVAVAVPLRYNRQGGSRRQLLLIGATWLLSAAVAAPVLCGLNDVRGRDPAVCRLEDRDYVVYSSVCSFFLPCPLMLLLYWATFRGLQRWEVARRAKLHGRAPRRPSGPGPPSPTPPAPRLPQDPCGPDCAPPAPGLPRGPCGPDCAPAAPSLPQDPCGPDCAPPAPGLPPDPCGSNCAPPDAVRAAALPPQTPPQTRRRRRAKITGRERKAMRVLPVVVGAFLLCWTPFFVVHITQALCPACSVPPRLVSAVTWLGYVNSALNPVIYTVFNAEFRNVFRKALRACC
Procedure: (§2) Recombinant human dopaminergic receptor D1, D2L, and D4 and serotonin receptor 5-HT1B and 5-HTID activity was assayed using a GTPΥS functional assay with Compound 1 at concentrations between 0.01 nM and 10,000 nM.

[4] = molecular target: Recombinant human dopaminergic receptor D1 (Homo sapiens, UniProt P21728); assay: GTPγS functional assay; assay type: biochemical
Procedure: as §2

[5] = molecular target: T4, serotonin receptor 5-HT1B (Homo sapiens, UniProt P28222); assay: GTPγS functional assay; assay type: biochemical; settings: 0.01 nM to 10,000 nM
Procedure: as §2

[6] = molecular target: T5, serotonin receptor 5-HT1D (Homo sapiens, UniProt P28221); assay: GTPγS functional assay; assay type: biochemical
Procedure: as §2

[7] = molecular target: Recombinant human dopaminergic receptor D2L (Homo sapiens, UniProt P14416); assay: GTPγS functional assay; assay type: biochemical; settings: read-out: EC50, agonist activity with the D2L receptor
Procedure: as §2

[8] = molecular target: T2, Recombinant human serotonin receptor 5-HT2A; settings: reported, Newman-Tancredi et al. 2002; read-out: reported EC50 on 5-HT2A receptors; cited from earlier work
[9] = molecular target: T5, serotonin receptor 5-HT1D; settings: cited from earlier work
[10] = molecular target: T4, serotonin receptor 5-HT1B; settings: read-out: EC50 on 5-HT1B receptors, reported; Newman-Tancredi et al. 2002; cited from earlier work
[11] = molecular target: T3, Recombinant human dopaminergic receptor D4; settings: cited from earlier work
[12] = molecular target: T1, Recombinant human serotonin receptor 5-HT2B; settings: reported, Newman-Tancredi et al. 2002; read-out: reported EC50 on 5-HT2B receptors; cited from earlier work

T5 sequence (P28221 whole entry): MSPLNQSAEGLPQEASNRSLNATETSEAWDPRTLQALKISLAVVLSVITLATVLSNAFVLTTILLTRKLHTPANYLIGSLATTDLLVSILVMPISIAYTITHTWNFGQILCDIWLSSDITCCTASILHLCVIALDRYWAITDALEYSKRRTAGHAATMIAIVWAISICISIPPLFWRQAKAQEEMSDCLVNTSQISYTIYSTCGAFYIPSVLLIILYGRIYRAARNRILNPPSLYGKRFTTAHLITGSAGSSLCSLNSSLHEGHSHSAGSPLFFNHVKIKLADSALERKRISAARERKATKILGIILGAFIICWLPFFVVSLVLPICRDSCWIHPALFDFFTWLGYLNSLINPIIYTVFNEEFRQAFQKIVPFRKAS
T2 sequence (P28223 whole entry): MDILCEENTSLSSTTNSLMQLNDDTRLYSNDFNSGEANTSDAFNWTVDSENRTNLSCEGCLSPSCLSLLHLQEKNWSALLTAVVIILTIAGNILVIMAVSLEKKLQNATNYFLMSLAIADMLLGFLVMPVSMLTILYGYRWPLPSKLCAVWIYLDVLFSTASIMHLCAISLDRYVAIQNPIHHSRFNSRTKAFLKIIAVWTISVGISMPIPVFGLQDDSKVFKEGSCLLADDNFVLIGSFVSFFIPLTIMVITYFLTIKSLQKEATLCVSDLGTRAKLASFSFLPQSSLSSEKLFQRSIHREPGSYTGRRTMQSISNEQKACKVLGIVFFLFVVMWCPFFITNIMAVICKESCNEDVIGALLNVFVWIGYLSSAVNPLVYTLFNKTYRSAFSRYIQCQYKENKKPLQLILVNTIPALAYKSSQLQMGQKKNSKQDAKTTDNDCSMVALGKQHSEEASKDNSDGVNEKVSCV
T1 sequence (P41595 whole entry): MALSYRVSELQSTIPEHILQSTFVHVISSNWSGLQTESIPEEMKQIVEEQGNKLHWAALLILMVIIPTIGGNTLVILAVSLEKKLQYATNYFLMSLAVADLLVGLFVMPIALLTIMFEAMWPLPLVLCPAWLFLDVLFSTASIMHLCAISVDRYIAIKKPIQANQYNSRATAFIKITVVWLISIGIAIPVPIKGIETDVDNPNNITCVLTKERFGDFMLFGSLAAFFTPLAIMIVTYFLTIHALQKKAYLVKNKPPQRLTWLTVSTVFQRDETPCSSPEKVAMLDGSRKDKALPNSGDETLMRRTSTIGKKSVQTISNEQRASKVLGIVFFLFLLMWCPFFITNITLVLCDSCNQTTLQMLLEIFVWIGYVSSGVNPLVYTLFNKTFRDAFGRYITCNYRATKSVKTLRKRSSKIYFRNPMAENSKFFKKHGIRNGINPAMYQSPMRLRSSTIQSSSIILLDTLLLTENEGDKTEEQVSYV
T4 sequence (P28222 whole entry): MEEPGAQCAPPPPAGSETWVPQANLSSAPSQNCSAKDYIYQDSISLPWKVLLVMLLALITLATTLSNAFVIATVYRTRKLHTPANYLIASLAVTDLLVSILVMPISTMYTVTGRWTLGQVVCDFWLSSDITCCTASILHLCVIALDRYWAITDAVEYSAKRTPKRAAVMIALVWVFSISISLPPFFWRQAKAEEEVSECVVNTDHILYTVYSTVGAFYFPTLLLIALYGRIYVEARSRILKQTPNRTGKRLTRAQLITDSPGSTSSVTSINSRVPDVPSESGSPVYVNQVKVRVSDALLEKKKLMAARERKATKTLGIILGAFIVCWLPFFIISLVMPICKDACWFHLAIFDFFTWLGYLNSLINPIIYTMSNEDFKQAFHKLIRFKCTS
Sequence of Recombinant human dopaminergic receptor D2L (P14416 whole entry): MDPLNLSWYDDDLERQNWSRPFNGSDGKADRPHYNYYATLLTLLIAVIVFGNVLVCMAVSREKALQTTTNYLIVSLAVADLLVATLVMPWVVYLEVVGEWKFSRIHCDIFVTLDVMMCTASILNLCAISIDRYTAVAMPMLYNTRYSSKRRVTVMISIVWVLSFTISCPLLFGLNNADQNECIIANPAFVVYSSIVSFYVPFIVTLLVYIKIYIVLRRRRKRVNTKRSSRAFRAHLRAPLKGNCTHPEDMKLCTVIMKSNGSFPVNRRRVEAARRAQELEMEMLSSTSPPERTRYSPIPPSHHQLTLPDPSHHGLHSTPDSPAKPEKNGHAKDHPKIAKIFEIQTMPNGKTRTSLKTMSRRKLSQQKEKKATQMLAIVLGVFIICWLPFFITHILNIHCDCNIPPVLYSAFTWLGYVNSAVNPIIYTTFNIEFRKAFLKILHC
Sequence of Recombinant human dopaminergic receptor D1 (P21728 whole entry): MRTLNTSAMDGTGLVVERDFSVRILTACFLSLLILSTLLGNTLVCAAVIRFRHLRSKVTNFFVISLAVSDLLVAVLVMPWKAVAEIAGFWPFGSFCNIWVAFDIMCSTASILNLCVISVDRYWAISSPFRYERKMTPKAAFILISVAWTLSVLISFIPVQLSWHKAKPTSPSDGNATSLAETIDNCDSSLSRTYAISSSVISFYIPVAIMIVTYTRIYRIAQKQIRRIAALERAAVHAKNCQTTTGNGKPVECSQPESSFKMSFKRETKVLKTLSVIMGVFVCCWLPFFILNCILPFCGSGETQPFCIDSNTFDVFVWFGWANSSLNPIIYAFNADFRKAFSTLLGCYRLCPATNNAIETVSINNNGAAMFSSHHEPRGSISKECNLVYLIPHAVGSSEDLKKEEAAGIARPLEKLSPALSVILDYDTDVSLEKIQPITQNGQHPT

Row | SMILES | EC50 ([1]; agonist activity, Aequorin assay, CHO-K1, read-out: EC50 on 5-HT2B receptors) | 5-HT2B receptor agonist activity in words ([1]; as compared to cabergoline) | EC50 ([2]; agonist activity, Aequorin assay, CHO-K1, read-out: EC50 on 5-HT2A receptors) | 5-HT2A receptor agonist activity in words ([2]; as compared to cabergoline) | Emax ([3]; GTPγS, receptor not given, follows the D2L/D4 comparison) | D2L to D4 receptor selectivity ([3]; when comparing EC50) | selectivity for the D2L receptor over the D1 receptor [4] | activity on 5-HT1B receptors [5] | agonist activity on serotonin receptor 5-HT1D in words [6] | EC50 ([6]; GTPγS, read-out: EC50, agonist on 5-HT1D receptors) | Emax ([6]; GTPγS, read-out: Emax on 5-HT1D receptors) | EC50 [7] | EC50 [8] | EC50 ([9]; Newman-Tancredi et al. 2002, read-out: EC50 on 5-HT1D receptors, reported) | Emax on 5-HT1D receptors, cabergoline comparison ([9]; comparison value for cabergoline) | EC50 [10] | D2L to D4 receptor selectivity, reported ([11]; reported results for cabergoline) | Emax, reported ([11]; reported values, Newman-Tancredi et al. 2002, receptor not given) | EC50 [12]
1 | C=CCN1C[C@H](C(=O)N(CCCN(C)C)C(=O)NCC)C[C@@H]2c3cccc4[nH]c(C(F)(F)F)c(c34)C[C@H]21 [Compound 1] | 6050 nM | weak | 946 nM | weak | 26% | 18 fold | approximately 110 fold | not active | weak agonist activity | 263 nM | 31% | 12.6 nM |  |  |  |  |  |  | 
2 | C=CCN1C[C@H](C(=O)N(CCCN(C)C)C(=O)NCC)C[C@@H]2c3cccc4[nH]cc(c34)C[C@H]21 [cabergoline, Cabergoline] |  |  |  |  |  |  |  |  |  |  |  |  | 7.8 nM | 16 nM | 68% | 2240 nM | ~200 fold | 49% | 2.6 nM
